Structures are written as SMILES.

In the test the target is T1, KATP channels (Homo sapiens, UniProt O60706+Q14654).
T1 construct: TE671 human medulloblastoma cells were obtained from ATCC; host or cells: TE671 human medulloblastoma cells
T1 sequence (O60706 1-1549 isoform O60706-2): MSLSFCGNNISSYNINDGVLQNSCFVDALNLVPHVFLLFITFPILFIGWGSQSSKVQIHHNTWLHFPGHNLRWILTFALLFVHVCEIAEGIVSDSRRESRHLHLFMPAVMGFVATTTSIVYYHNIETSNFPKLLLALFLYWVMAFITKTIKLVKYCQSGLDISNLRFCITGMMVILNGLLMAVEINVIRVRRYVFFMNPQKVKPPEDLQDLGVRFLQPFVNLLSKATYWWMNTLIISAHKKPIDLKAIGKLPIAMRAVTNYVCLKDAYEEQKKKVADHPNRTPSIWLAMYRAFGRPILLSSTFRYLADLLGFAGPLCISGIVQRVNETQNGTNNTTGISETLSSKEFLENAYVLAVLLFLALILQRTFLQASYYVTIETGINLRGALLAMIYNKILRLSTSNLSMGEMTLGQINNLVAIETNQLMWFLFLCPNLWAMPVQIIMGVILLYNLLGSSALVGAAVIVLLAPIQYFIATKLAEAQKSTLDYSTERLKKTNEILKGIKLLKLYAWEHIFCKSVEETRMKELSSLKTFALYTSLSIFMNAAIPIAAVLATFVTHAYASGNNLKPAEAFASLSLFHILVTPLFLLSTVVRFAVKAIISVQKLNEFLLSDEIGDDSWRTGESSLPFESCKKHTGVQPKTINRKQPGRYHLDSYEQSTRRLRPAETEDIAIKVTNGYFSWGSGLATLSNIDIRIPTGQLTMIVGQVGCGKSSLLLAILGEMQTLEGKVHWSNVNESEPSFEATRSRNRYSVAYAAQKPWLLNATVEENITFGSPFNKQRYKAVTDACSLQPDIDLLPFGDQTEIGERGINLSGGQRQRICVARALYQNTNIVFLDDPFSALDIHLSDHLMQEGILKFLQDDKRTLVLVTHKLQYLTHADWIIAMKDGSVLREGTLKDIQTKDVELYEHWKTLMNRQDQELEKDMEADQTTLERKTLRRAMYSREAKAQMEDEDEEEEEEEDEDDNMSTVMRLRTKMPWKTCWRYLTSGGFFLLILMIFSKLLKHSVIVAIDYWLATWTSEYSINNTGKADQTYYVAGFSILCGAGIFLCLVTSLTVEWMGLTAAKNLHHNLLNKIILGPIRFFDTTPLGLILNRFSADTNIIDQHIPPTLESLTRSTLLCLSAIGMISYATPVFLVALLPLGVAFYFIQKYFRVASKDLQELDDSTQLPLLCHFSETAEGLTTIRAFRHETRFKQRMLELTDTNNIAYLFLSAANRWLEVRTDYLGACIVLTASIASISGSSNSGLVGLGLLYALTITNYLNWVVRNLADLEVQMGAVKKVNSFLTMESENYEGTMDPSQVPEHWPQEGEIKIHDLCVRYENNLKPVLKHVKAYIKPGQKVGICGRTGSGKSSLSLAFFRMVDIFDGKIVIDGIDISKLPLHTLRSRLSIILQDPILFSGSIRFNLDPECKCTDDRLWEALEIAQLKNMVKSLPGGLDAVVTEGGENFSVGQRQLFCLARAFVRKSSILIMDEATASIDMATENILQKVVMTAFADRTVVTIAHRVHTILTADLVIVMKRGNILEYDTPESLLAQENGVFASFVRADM
T1 sequence (Q14654 whole entry): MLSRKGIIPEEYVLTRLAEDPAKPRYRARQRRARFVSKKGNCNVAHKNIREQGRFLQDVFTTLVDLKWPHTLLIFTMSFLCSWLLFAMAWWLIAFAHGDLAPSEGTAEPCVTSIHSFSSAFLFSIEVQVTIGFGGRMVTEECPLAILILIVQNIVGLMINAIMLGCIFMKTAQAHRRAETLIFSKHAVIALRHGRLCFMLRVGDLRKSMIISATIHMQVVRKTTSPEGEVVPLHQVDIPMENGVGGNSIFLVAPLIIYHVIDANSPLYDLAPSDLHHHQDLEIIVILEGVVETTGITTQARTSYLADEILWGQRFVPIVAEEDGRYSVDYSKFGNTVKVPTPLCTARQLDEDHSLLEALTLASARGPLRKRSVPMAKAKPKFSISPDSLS
Nature of the test: Potassium Channel Assay (FLIPR membrane potential, TE671 cells). The following applies: TE671 human medulloblastoma cells, Membrane Potential Assay Dye, room temperature, hyperpolarization from KATP channel opening. The class given is cell-based. Here is the method:
TE671 human medulloblastoma cells were obtained from ATCC and grown in Dulbecco's modified Eagle's medium (DMEM) supplemented with 10% fetal bovine serum, 100 U/ml penicillin and 100 U/ml streptomycine.
The day before testing, the cells were plated in black 96-well plates at 50K/well. On the day of testing, the growth media was removed, then 100 μl of FLIPR buffer (20 mM HEPES, 120 mM NaCl, 2 mM KCl, 2 mM CaCl2, 1 mM MgCl2, 5 mM Glucose) and 100 μl of Membrane Potential Assay Dye (Molecular Devices) dissolved in FLIPR buffer were added to each well. The cells were incubated at room temperature for 15 to 30 min.
The effect of test compounds on KATP channels were evaluated on a fluorometric imaging plate reader (FLIPR, Molecular Devices) at room temperature. After a baseline period, 50 μl of 5× stock solution of test compound prepared in FLIPR buffer was added and fluorescent change was monitored for 3 minutes. After this reading, glyburide, a KATP channel blocker, was added to a final concentration of 5 μM to check the specificity of the test compound as a KATP channel openers. Hyperpolarization resulting from KATP channel opening was observed as a decrease in fluorescent intensity.
Representative compounds of the present invention were tested according to the procedure described above, with results as listed in Table 7, below.
Regarding `CC1(C)Oc2ccc(C#N)cc2[C@@H](N2CC3(CCCCC3)CC2=O)[C@@H]1O` [Compound 34, 3S-Hydroxy-2,2-dimethyl-4R-(3-oxo-2-aza-spiro[4.5]dec-2-yl)-chroman-6-carbonitrile], the EC50 – broadly, the concentration at which the effect is half-maximal – stood at 21.4 µM.

`CC1(C)Oc2ccc(C#N)cc2[C@@H](Nc2nc3cc(Cl)ccc3s2)[C@@H]1O` (racemic) [Compound 1, 4-(5-Chloro-benzothiazol-2-ylamino)-3-hydroxy-2,2-dimethyl-chroman-6-carbonitrile] returned an EC50 of 14.6 µM.

`CC1(C)Oc2ccc(C#N)cc2[C@@H](n2nc(N)c3cc(Cl)ccc32)[C@@H]1O` [Compound 33, 4R-(3-Amino-5-chloro-indazol-1-yl)-3S-hydroxy-2,2-dimethyl-chroman-6-carbonitrile] gave a 50% effective concentration (EC50) of 6.85 µM.

In turn, `CC1(C)Oc2ccc(C#N)cc2[C@@H](n2c(=O)ccn2-c2ccccc2)[C@@H]1O` (racemic) [Compound 62, 3-Hydroxy-2,2-dimethyl-4-(5-oxo-2-phenyl-2,5-dihydro-pyrazol-1-yl)-chroman-6-carbonitrile] displayed a 50% effective concentration (EC50) of 13.5 µM.

`CC1(C)Oc2ccc(C#N)cc2[C@@H](n2cncc2-c2ccc(Cl)cc2)[C@@H]1O` (racemic) [Compound 18, 4-[5-(4-Chloro-phenyl)-imidazol-1-yl]-3-hydroxy-2,2-dimethyl-chroman-6-carbonitrile]: the half-maximal effective concentration (EC50) was found to be 7.45 µM.

The molecule `CC1(C)Oc2ccncc2[C@@H](n2nc(-c3ccc(Cl)cc3)ccc2=O)[C@@H]1O` (racemic) [Compound 112, 6-(4-Chloro-phenyl)-2-(3-hydroxy-2,2-dimethyl-3,4-dihydro-2H-pyrano[3,2-c]pyridin-4-yl)-2H-pyridazin-3-one] registered an EC50 of 29.8 µM.

Turning to `CC1(C)Oc2ccc(C#N)cc2[C@@H](N2CCN(c3ccc(Cl)cc3)CC2)[C@@H]1O` (racemic) [Compound 50, 4-[4-(4-Chloro-phenyl)-piperazin-1-yl]-3-hydroxy-2,2-dimethyl-chroman-6-carbonitrile], the EC50 is > 30 µM.

On to `CC1(C)Oc2ccc(C#N)cc2[C@@H](n2nc(N)c3ccccc32)[C@@H]1O` [Compound 37, 4R-(3-Amino-indazol-1-yl)-3S-hydroxy-2,2-dimethyl-chroman-6-carbonitrile], for which the half-maximal effective concentration (EC50) turned out to be 20 µM.

As for `COc1ccc(S(=O)(=O)c2ccc3c(c2)[C@@H](Oc2noc4cc(Cl)ccc24)[C@H](O)C(C)(C)O3)cc1` [Compound 97, 4R-(6-Chloro-benzo[d]isoxazol-3-yloxy)-6-(4-methoxy-benzenesulfonyl)-2,2-dimethyl-chroman-3S-ol], the EC50 is > 30 µM.

In the case of `CC1(C)Oc2ccc(S(=O)(=O)c3ccccc3)cc2[C@@H](Oc2noc3cc(Cl)ccc23)[C@@H]1O` [Compound 77, 6-Benzenesulfonyl-4R-(6-chloro-benzo[d]isoxazol-3-yloxy)-2,2-dimethyl-chroman-3S-ol], the concentration giving a half-maximal response (EC50) is > 30 µM.

In turn, `CC1(C)Oc2ccc(Cl)cc2C(OC(=O)c2cccc(Cl)c2)C1O` (racemic) [Compound 3] displayed an EC50 of 26.3 µM.

Regarding `CC1(C)Oc2ccc(C#N)cc2[C@@H](n2sc3ccccc3c2=O)[C@@H]1O` [Compound 30], the concentration giving a half-maximal response (EC50) turned out to be 14.1 µM.

As for `CC1(C)Oc2ccc(S(=O)(=O)N3CCCCC3)cc2[C@@H](Oc2noc3cc(Cl)ccc23)[C@@H]1O` [Compound 83, 4R-(6-Chloro-benzo[d]isoxazol-3-yloxy)-2,2-dimethyl-6-(piperidine-1-sulfonyl)-chroman-3S-ol], the EC50 is > 30 µM.

`N#Cc1ccc2c(c1)[C@@H](Oc1noc3cc(Cl)ccc13)[C@H](O)C1(CCS(=O)(=O)CC1)O2` [Compound 200, (3S,4R)-4-(6-Chloro-benzo[d]isoxazol-3-yloxy)-2,2-(tetrahydro-4-sulfonylpyranyl)-3-hydroxy-chroman-6-carbonitrile] gave a half-maximal effective concentration (EC50) of 29.7 µM.

For `CC1(C)C=C(n2ccnc2-c2ccccc2)c2cc(C#N)ccc2O1` [Compound 61, 2,2-Dimethyl-4-(2-phenyl-imidazol-1-yl)-2H-chromene-6-carbonitrile], the EC50 was > 30 µM.

With `CC1(C)Oc2ccc(S(=O)(=O)c3cccc(F)c3)cc2[C@@H](Oc2noc3cc(Cl)ccc23)[C@@H]1O` [Compound 99, 4R-(6-Chloro-benzo[d]isoxazol-3-yloxy)-6-(3-fluoro-benzenesulfonyl)-2,2-dimethyl-chroman-3S-ol], a half-maximal effect (EC50) was put at 21.5 µM.

For the molecule `CC1(C)Oc2ccc(S(=O)(=O)c3cccc(F)c3)cc2[C@@H](Nc2noc3ccc(Cl)cc23)[C@@H]1O` [Compound 103, 4R-(5-Chloro-benzo[d]isoxazol-3-ylamino)-6-(3-fluoro-benzenesulfonyl)-2,2-dimethyl-chroman-3S-ol], the EC50 was found to be 7.77 µM.

Consider `CCN(CC)S(=O)(=O)c1ccc2c(c1)[C@@H](Nc1noc3cc(Cl)ccc13)[C@H](O)C(C)(C)O2` [Compound 81, 4R-(6-Chloro-benzo[d]isoxazol-3-ylamino)-3S-hydroxy-2,2-dimethyl-chroman-6-sulfonic acid diethylamide], for which the concentration giving a half-maximal response (EC50) was 13.6 µM.

On to `CC1(C)Oc2ccc(C#N)cc2[C@@H](n2ccnc2-c2ccc(Cl)cc2)[C@@H]1O` (racemic) [Compound 12, 4-[2-(4-Chloro-phenyl)-imidazol-1-yl]-3-hydroxy-2,2-dimethyl-chroman-6-carbonitrile], for which the midpoint of the response, the EC50, lay at 5.7 µM.

`CC1(C)Oc2ccc(S(=O)(=O)c3cccc(F)c3)cc2[C@@H](n2oc3cc(Cl)ccc3c2=O)[C@@H]1O` [Compound 100, 4R-6-Chloro-2-[6-(3-fluoro-benzenesulfonyl)-3S-hydroxy-2,2-dimethyl-chroman-4-yl]-R-benzo[d]isoxazol-3-one]: the concentration giving a half-maximal response (EC50) amounted to 1.95 µM.

Molecule `CC1(C)Oc2ccc(C#N)cc2[C@@H](Oc2cc(N)nc3ccccc23)[C@@H]1O` (racemic) [Compound 8, 4-(2-Amino-quinolin-4-yloxy)-3-hydroxy-2,2-dimethyl-chroman-6-carbonitrile] gave a 50% effective concentration (EC50) of 3.71 µM.

`CC1(C)Oc2ccc(S(=O)(=O)c3ccccc3)cc2[C@@H](n2oc3ccc(Cl)cc3c2=O)[C@@H]1O` [Compound 76, 2-(6-Benzenesulfonyl-3S-hydroxy-2,2-dimethyl-chroman-4-yl)-5-chloro-4R-benzo[d]isoxazol-3-one] registered a half-maximal effective concentration (EC50) of 0.4 µM.

With `CC1(C)Oc2ccc(C#N)cc2[C@@H](Sc2nc3cc(OC(F)F)ccc3[nH]2)[C@@H]1O` (racemic) [Compound 16, 4-(5-Difluoromethoxy-1H-benzoimidazol-2-ylsulfanyl)-3-hydroxy-2,2-dimethyl-chroman-6-carbonitrile], the concentration giving a half-maximal response (EC50) is > 30 µM.

As for `CC1(C)Oc2ccncc2[C@@H](n2cncc2-c2ccc(Cl)cc2)[C@@H]1O` (racemic) [Compound 113, 4-[5-(4-Chloro-phenyl)-imidazol-1-yl]-2,2-dimethyl-3,4-dihydro-2H-pyrano[3,2-c]pyridin-3-ol], the EC50 was 13.8 µM.

The molecule `CC1(C)Oc2ccc(C#N)cc2[C@@H](Nc2nc(=O)c3cc(Cl)ccc3[nH]2)[C@@H]1O` (racemic) [Compound 7, 4-(6-Chloro-4-oxo-1,4-dihydro-quinazolin-2-ylamino)-3-hydroxy-2,2-dimethyl-chroman-6-carbonitrile] showed an EC50 of 2.29 µM.

For the molecule `CC1(C)Oc2ccc(C#N)cc2[C@@H](n2nc(-c3ccc(Cl)cc3)ccc2=O)[C@@H]1O` (racemic) [Compound 14, 4-[3-(4-Chloro-phenyl)-6-oxo-6H-pyridazin-1-yl]-3-hydroxy-2,2-dimethyl-chroman-6-carbonitrile], the concentration for a half-maximal effect (EC50) is > 30 µM.

Consider `N#Cc1ccc2c(c1)[C@@H](NC(=O)c1cccc(Cl)c1)[C@H](O)C1(CCS(=O)(=O)CC1)O2` [Compound 201, (3S,4R)-3-Chloro-N-[6-cyano-3-hydroxy-2,2-(tetrahydro-4-sulfonylpyranyl)-chroman-4-yl]-benzamide], for which the 50% effective concentration (EC50) is > 30 µM.

As to `CC1(C)C=C(Oc2nsc3cc([N+](=O)[O-])ccc23)c2cc(C#N)ccc2O1` [Compound 69, (3S,4R)-2,2-Dimethyl-R-(6-nitro-benzo[d]isothiazol-3-yloxy)-2H-chromene-6-carbonitrile], the half-maximal effective concentration (EC50) is > 30 µM.

For the molecule `CC1(C)Oc2ccc(C#N)cc2[C@@H](N2C(=O)C(=O)c3cc(Cl)ccc32)[C@@H]1O` [Compound 24, (3S,4R)-4-(5-Chloro-2,3-dioxo-2,3-dihydro-indol-1-yl)-3-hydroxy-2,2-dimethyl-chroman-6-carbonitrile], a half-maximal response (EC50) required 3.64 µM.

On to `COc1ccc(S(=O)(=O)c2ccc3c(c2)[C@@H](Nc2noc4ccc(Cl)cc24)[C@H](O)C(C)(C)O3)cc1` [Compound 104, 4R-(5-Chloro-benzo[d]isoxazol-3-ylamino)-6-(4-methoxy-benzenesulfonyl)-2,2-dimethyl-chroman-3S-ol], for which a half-maximal effect (EC50) was put at 25.7 µM.

As to `CC1(C)Oc2ccc(C(=O)c3ccccc3)cc2[C@@H](Oc2noc3cc(Cl)ccc23)[C@@H]1O` [Compound 95], the EC50 came to 20.7 µM.

Molecule `CC1(C)Oc2ccc(C#N)cc2[C@@H](n2nc(N)c3c(F)cccc32)[C@@H]1O` [Compound 36, 4R-(3-Amino-4-fluoro-indazol-1-yl)-3S-hydroxy-2,2-dimethyl-chroman-6-carbonitrile] had a 50% effective concentration (EC50) of 16.2 µM.

For the origin of these results see US7812183B2, “Benzopyran derivatives as potassium channel openers” (Janssen Pharmaceutica NV, priority 2005, dated 2010).
